Experimental data taken from patent US7635572B2, “Methods for conducting assays for enzyme activity on protein microarrays” (Life Technologies Corporation, priority 2004, dated 2009).
Read-outs that look alike come from different tables or passages of the source.

Columns and labels:
Experiment in all cases: Further analysis of a plurality of inhibitors and a plurality of kinases on microarray (Example IX, Table 5);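 also: inhibition of each kinase by the inhibitors is given as a qualitative level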;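 as to Inhibition level, CDKL3: level 0 no or unclear inhibition to Level 2 substantial inhibition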;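 as to Inhibition level, MAP2K4: level 0 none or unclear Level 1 marginal Level 2 substantial inhibition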;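 as to Inhibition level, MAP3K4: level 0 no or unclear inhibition to Level 2 substantial inhibition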;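 as to Inhibition level, STK4: level 0 no or unclear inhibition to Level 2 substantial inhibition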;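 as to Inhibition level, TGFBR2: level 0 none or unclear then 1 little or marginal then 2 substantial inhibition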
Assay type in all cases: biochemical
[1] = target: plurality of kinases (Table 5) (Homo sapiens, UniProt P06239)
Sequence of plurality of kinases (Table 5) (Homo sapiens, UniProt P06239) (P06239 whole entry): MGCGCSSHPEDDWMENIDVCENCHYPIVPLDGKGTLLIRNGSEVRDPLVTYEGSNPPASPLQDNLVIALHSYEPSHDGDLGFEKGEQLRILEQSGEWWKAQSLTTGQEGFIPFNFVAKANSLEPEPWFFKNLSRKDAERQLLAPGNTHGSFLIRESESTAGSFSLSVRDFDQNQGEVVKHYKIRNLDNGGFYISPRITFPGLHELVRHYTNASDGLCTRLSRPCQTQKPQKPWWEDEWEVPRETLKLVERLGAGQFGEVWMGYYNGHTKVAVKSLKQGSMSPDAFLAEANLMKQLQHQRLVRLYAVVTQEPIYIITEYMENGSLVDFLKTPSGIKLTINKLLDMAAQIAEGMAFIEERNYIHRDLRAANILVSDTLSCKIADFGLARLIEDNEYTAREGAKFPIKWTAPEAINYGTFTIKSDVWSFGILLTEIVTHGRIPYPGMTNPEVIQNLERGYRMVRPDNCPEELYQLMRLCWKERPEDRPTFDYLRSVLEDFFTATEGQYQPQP

[2] = target: plurality of kinases (Table 5) (Homo sapiens, UniProt P07948)
Sequence of plurality of kinases (Table 5) (Homo sapiens, UniProt P07948) (P07948 whole entry): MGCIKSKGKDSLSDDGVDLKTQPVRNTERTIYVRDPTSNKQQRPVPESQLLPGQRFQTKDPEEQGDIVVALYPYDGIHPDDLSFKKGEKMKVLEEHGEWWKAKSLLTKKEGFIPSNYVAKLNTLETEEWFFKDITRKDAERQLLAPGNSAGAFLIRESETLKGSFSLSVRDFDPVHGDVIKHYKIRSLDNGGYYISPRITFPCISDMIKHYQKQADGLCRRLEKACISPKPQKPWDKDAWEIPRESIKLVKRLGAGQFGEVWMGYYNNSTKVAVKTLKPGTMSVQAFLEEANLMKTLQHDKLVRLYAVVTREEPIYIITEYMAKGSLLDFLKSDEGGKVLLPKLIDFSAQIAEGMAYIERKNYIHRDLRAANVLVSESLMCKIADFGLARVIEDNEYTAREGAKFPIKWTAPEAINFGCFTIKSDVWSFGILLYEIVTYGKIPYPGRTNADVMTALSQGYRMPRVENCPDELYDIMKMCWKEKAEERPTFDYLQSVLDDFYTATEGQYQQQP

[3] = target: plurality of kinases (Table 5) (Homo sapiens, UniProt P11362); settings: plate D12; inhibitor 100 uM
Sequence of plurality of kinases (Table 5) (Homo sapiens, UniProt P11362) (P11362 22-822): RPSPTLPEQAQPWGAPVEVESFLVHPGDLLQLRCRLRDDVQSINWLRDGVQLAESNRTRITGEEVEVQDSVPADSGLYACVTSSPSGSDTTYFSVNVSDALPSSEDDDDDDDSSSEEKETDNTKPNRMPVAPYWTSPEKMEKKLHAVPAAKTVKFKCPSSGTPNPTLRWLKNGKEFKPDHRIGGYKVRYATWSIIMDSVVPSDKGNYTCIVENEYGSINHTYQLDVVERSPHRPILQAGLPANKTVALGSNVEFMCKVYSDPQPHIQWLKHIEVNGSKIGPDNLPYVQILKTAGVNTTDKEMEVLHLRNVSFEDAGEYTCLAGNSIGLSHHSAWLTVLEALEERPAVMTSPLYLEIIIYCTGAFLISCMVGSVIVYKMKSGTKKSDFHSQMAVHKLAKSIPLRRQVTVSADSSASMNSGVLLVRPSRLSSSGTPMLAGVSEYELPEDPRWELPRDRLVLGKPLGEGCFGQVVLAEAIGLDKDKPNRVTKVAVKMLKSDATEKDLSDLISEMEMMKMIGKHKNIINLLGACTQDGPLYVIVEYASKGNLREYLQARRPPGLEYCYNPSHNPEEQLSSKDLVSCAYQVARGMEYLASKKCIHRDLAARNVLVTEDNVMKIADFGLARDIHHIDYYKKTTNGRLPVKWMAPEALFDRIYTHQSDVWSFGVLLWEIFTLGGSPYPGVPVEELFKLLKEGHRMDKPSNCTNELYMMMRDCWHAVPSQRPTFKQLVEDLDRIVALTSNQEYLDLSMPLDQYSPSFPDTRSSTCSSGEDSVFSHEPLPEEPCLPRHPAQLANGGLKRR

[4] = target: plurality of kinases (Table 5) (Homo sapiens, UniProt P16591); settings: plate H5; inhibitor 100 uM
Sequence of plurality of kinases (Table 5) (Homo sapiens, UniProt P16591) (P16591 whole entry): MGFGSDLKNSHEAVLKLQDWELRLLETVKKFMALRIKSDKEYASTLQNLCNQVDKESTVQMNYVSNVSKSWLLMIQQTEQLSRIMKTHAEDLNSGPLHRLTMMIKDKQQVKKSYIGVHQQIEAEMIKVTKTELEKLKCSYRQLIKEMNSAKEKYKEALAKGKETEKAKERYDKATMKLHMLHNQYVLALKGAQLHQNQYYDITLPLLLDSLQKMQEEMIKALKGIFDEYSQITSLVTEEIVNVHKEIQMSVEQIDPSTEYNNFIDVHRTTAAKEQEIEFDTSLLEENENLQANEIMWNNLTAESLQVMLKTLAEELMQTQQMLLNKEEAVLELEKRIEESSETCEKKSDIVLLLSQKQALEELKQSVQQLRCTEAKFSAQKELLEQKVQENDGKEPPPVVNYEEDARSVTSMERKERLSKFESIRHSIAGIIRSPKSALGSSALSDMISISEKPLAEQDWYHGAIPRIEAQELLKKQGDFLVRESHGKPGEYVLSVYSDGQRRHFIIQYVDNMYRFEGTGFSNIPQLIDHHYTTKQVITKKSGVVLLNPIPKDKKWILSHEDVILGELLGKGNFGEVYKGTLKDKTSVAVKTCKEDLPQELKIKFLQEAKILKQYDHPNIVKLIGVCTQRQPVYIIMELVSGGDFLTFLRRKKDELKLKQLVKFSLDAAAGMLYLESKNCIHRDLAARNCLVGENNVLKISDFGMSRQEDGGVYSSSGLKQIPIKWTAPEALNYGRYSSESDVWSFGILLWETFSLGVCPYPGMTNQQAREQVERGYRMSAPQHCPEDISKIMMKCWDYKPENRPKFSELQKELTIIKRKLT

[5] = target: plurality of kinases (Table 5) (Homo sapiens, UniProt P37173); settings: plate C7
Sequence of plurality of kinases (Table 5) (Homo sapiens, UniProt P37173) (P37173 23-567): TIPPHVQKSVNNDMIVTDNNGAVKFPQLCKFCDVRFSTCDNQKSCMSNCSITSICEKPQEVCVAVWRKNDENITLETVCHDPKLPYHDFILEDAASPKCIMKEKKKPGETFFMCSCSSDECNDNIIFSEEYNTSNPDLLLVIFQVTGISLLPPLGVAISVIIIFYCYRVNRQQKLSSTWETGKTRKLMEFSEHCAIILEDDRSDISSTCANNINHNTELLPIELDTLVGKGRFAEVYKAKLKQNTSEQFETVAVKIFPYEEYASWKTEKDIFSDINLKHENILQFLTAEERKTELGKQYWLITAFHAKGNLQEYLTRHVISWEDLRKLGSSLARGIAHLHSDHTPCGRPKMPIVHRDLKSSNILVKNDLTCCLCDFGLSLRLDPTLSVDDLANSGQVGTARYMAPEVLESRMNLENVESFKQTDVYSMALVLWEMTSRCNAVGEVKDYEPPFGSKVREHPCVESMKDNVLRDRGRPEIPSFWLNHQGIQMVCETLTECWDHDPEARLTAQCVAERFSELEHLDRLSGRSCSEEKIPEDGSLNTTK

[6] = target: T1, plurality of kinases (Table 5) (Homo sapiens, UniProt P45985)
T1 sequence (P45985 1-399): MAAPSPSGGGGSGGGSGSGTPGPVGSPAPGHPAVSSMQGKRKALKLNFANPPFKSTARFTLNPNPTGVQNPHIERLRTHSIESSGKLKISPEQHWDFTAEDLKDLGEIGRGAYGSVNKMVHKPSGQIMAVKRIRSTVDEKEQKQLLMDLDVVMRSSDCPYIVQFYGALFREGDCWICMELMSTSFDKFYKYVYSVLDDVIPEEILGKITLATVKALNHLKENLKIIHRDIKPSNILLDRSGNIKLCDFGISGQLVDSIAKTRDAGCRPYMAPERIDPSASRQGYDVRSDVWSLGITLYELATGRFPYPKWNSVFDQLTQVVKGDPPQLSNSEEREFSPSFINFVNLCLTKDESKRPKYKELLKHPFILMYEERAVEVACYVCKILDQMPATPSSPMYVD

[7] = target: plurality of kinases (Table 5) (Homo sapiens, UniProt Q00536); settings: plate A3; inhibitor 100 uM
Sequence of plurality of kinases (Table 5) (Homo sapiens, UniProt Q00536) (Q00536 whole entry): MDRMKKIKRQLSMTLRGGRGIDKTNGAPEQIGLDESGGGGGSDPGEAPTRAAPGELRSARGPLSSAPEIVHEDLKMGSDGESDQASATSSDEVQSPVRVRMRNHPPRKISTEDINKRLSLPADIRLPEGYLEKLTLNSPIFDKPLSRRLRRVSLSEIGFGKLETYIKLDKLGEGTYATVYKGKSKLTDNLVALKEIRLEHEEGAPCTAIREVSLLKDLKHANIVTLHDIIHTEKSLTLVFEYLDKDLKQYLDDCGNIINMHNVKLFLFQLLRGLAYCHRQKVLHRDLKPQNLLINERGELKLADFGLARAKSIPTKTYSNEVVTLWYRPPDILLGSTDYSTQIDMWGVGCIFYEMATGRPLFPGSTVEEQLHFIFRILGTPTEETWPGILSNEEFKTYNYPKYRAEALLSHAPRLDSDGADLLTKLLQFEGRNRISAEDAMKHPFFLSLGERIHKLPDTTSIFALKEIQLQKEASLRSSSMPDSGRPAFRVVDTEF

[8] = target: T2, plurality of kinases (Table 5) (Homo sapiens, UniProt Q13043); settings: plate D6
T2 sequence (Q13043 1-487): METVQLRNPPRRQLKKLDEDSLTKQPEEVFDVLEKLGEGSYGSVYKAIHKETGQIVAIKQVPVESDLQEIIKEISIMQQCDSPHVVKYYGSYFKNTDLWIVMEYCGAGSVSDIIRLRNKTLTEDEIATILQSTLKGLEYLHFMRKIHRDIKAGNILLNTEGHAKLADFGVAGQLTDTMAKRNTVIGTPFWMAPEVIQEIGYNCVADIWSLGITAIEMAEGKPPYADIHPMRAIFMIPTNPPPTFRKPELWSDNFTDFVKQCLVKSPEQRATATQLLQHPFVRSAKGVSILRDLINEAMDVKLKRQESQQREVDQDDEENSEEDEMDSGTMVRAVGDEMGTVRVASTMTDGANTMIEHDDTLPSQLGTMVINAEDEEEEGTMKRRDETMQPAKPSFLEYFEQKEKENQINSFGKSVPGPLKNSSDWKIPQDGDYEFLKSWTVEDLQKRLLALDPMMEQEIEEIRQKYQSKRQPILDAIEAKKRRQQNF

[9] = target: T3, plurality of kinases (Table 5) (Homo sapiens, UniProt Q8IV63); settings: plate C12
T3 sequence (Q8IV63 1-474): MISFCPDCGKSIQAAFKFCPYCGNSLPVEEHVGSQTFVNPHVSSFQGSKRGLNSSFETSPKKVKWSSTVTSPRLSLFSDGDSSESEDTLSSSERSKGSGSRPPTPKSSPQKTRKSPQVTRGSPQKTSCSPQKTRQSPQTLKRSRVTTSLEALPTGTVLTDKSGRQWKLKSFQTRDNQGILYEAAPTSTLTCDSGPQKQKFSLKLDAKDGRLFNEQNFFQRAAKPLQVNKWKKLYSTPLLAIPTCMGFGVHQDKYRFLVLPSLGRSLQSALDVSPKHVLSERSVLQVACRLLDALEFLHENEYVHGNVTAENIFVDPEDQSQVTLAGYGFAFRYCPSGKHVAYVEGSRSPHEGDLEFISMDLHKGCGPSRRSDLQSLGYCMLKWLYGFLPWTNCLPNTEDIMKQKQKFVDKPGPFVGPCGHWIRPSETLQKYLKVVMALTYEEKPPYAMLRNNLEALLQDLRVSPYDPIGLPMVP

[10] = target: plurality of kinases (Table 5) (Homo sapiens, UniProt Q8IVW4); settings: plate F12; inhibitor 100 uM
Sequence of plurality of kinases (Table 5) (Homo sapiens, UniProt Q8IVW4) (Q8IVW4 whole entry): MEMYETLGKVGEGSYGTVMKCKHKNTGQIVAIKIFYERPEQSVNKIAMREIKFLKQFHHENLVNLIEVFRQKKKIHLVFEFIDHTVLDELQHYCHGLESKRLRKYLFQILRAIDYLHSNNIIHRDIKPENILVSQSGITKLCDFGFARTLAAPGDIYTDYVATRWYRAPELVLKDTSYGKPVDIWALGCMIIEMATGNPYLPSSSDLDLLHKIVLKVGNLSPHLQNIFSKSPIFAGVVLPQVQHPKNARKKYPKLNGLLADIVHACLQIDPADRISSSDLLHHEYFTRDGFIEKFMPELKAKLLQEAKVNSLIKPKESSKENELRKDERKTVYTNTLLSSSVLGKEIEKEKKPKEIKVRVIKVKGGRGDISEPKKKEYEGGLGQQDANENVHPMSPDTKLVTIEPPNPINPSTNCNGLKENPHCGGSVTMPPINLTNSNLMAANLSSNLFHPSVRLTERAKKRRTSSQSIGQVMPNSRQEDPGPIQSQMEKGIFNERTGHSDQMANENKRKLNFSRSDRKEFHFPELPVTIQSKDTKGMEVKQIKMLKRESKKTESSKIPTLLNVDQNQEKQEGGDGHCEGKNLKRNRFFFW

[11] = target: T4, plurality of kinases (Table 5) (Homo sapiens, UniProt Q99759); settings: plate A1
T4 sequence (Q99759 1-626): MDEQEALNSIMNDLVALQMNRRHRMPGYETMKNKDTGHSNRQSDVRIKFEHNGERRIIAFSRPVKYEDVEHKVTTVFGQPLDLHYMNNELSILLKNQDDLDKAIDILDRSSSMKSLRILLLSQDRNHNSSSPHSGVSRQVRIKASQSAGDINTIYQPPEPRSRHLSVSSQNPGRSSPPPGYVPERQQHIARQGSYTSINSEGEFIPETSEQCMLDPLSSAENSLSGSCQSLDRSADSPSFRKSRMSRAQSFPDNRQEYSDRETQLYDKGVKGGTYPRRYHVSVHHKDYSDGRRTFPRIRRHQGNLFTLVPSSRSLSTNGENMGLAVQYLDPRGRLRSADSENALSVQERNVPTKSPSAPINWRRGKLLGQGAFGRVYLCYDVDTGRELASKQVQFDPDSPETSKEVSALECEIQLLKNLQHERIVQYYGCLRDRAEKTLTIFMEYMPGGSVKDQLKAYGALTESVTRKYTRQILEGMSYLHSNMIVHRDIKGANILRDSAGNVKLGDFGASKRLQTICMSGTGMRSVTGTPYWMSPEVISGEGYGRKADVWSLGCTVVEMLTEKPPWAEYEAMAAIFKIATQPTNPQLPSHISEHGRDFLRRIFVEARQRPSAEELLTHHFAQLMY

[12] = target: plurality of kinases (Table 5) (Homo sapiens, UniProt Q9Y6E0); settings: plate F11; inhibitor 100 uM
Sequence of plurality of kinases (Table 5) (Homo sapiens, UniProt Q9Y6E0) (Q9Y6E0 whole entry): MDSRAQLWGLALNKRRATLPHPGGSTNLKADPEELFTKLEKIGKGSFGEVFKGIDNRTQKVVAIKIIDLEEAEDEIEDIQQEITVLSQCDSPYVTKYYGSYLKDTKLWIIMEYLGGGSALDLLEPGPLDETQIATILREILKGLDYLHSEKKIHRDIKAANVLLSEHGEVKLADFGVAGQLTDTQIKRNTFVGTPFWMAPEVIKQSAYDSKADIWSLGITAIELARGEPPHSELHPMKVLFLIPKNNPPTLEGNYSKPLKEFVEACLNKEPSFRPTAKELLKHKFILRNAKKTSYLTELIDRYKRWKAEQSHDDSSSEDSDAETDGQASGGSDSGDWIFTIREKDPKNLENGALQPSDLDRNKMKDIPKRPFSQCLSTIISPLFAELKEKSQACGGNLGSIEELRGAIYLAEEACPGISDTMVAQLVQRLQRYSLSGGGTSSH

[13] = target: plurality of kinases (Table 5) (Homo sapiens, UniProt Q9Y6R4); settings: plate E7; inhibitor 100 uM
[14] = plate A5, Domain 0, inhibitor 100 uM

Row | Inhibition level, LCK ([1]; plate A6, inhibitor 100 uM) | Inhibition level, FGFR1 [3] | Inhibition level, STK24 [12] | SMILES | Inhibition level, LYN [2, 14] | Inhibition level, FER [4] | Inhibition level, TGFBR2 ([5]; inhibitor 100 uM) | Inhibition level, MAP2K4 ([6]; plate E6, inhibitor 100 uM) | Inhibition level, PCTK1 [7] | Inhibition level, STK4 ([8]; inhibitor 100 uM) | Inhibition level, LOC51231 ([9]; inhibitor 100 uM) | Inhibition level, CDKL3 [10] | Inhibition level, MAP3K3 ([11]; inhibitor 100 uM) | Inhibition level, MAP3K4 [13] | other results
1 | 2 | 0 | 2 | O=c1c(-c2ccc(O)cc2)coc2cc(O)cc(O)c12 [Genistein] | 2 | 2 | 2 | 2 | 1 | 0 | 2 | 0 | 2 | 1 | Inhibition level, LCK ([1]; plate A6, Genistein <3.7 mM): 0; Inhibition level, LYN ([2]; plate A5, Domain 0, Genistein <3.7 mM): 2; Inhibition level, TGFBR2 ([5]; Genistein <3.7 mM): 1; Inhibition level, MAP2K4 ([6]; plate E6, Genistein <3.7 mM): 0; Inhibition level, STK4 ([8]; Genistein, conc. not given): 0; Inhibition level, LOC51231 ([9]; Genistein <3.7 mM): 0; Inhibition level, MAP3K3 ([11]; Genistein <3.7 mM): 2
2 | 2 | 1 | 2 | O=S(=O)(NCCNC/C=C/c1ccc(Br)cc1)c1cccc2cnccc12 [H-89] | 2 | 2 | 2 | 1 | 2 | 2 | 2 | 1 | 2 | 1 | 
3 |  | 2 | 2 | CC(C)(C)n1nc(-c2ccc(Cl)cc2)c2c(N)ncnc21 [PP2] | 2 | 2 | 2 | 2 | 1 | 2 | 0 | 2 | 2 | 2 | 
4 |  |  |  | O=c1c(O)c(-c2ccc(O)c(O)c2)oc2cc(O)cc(O)c12 [Quercetin] | 2 | 1 | 0 | 0 | 0 | 0 | 0 | 0 | 0 | 0 | 
5 | 2 | 2 | 2 | Cn1cc(C2=C(c3cn(CCCSC(=N)N)c4ccccc34)C(=O)NC2=O)c2ccccc21 [Ro-31-8220] | 2 | 2 | 2 | 1 | 0 | 2 | 2 | 2 | 0 | 2 | Inhibition level, LCK ([1]; plate A6, Ro-31-8220 90 uM): 0; Inhibition level, LYN ([2]; plate A5, Domain 0, Ro-31-8220 90 uM): 0; Inhibition level, TGFBR2 ([5]; Ro-31-8220 90 uM): 2; Inhibition level, MAP2K4 ([6]; plate E6, Ro-31-8220 90 uM): 0; Inhibition level, STK4 ([8]; Ro-31-8220, conc. not given): 0; Inhibition level, LOC51231 ([9]; Ro-31-8220 90 uM): 0; Inhibition level, MAP3K3 ([11]; Ro-31-8220 90 uM): 2
6 |  |  |  | CN[C@@H]1C[C@H]2O[C@@](C)([C@@H]1OC)n1c3ccccc3c3c4c(c5c6ccccc6n2c5c31)C(=O)NC4 [Staurosporine] |  |  |  |  |  |  |  |  |  |  | Inhibition level, LYN [2]: 0; Inhibition level, TGFBR2 ([5]; Staurosporine 21.5 uM): 2; Inhibition level, MAP2K4 [6]: 0; Inhibition level, STK4 ([8]; Staurosporine, conc. not given): 0; Inhibition level, LOC51231 ([9]; Staurosporine 21.5 uM): 0; Inhibition level, MAP3K3 ([11]; Staurosporine 21.5 uM): 2

Row | SMILES | Inhibition level, LCK ([1]; plate A6, inhibitor 100 uM) | Inhibition level, FGFR1 [3] | Inhibition level, STK24 [12] | Inhibition level, LYN [2, 14] | Inhibition level, FER [4] | Inhibition level, TGFBR2 ([5]; inhibitor 100 uM) | Inhibition level, MAP2K4 ([6]; plate E6, inhibitor 100 uM) | Inhibition level, PCTK1 [7] | Inhibition level, STK4 ([8]; inhibitor 100 uM) | Inhibition level, LOC51231 ([9]; inhibitor 100 uM) | Inhibition level, CDKL3 [10] | Inhibition level, MAP3K3 ([11]; inhibitor 100 uM) | Inhibition level, MAP3K4 [13] | other results
7 | N#C/C(=C/c1ccc(O)c(O)c1)C(=O)NCc1ccccc1 [AG 490] | 2 | 0 | 2 | 2 | 2 | 2 | 0 | 0 | 0 | 0 | 2 | 2 | 2 | 
8 | COc1cc2ncnc(Nc3cccc(Cl)c3)c2cc1OC [AG 1478] |  | 1 | 1 | 2 | 1 | 2 | 0 | 0 | 1 | 0 | 1 | 2 | 1 | Inhibition level, LCK [1]: 2
9 | CC(=O)c1c(O)c(C)c(O)c(Cc2c(O)c3c(c(C(=O)/C=C/c4ccccc4)c2O)OC(C)(C)C=C3)c1O [Rottlerin (Mallotoxin)] | 2 | 1 | 1 | 2 | 2 | 2 | 1 | 0 | 0 | 0 | 1 | 2 | 1 | 
